Assay results published in patent US11572366B2, “Heterocyclic compounds as immunomodulators” (Incyte Corporation, priority 2015, dated 2023).

The molecules below were run against PD-1/PD-L1 protein/protein interaction (Homo sapiens (Human), UniProt Q9NZQ7) (assay: PD-1/PD-L1 Homogeneous Time-Resolved Fluorescence (HTRF) binding assay). Details: recombinant human PD-L1 (19-238) His-tag 10 nM, human PD-1 (25-167) Fc tag 3 nM, 25° C., PBS pH 7.4.
Procedure: Example A. PD-1/PD-L Homogeneous Time-Resolved Fluorescence (HTRF) Binding Assay
The assays were conducted in a standard black 384-well polystyrene plate with a final volume of 20 μL. Inhibitors were first serially diluted in DMSO and then added to the plate wells before the addition of other reaction components. The final concentration of DMSO in the assay was 1%. The assays were carried out at 25° C. in the PBS buffer (pH 7.4) with 0.05% Tween-20 and 0.1% BSA. Recombinant human PD-L1 protein (19-238) with a His-tag at the C-terminus was purchased from AcroBiosystems (PD1-H5229). Recombinant human PD-1 protein (25-167) with Fc tag at the C-terminus was also purchased from AcroBiosystems (PD1-H5257). PD-L1 and PD-1 proteins were diluted in the assay buffer and 10 μL was added to the plate well. Plates were centrifuged and proteins were preincubated with inhibitors for 40 minutes. The incubation was followed by the addition of 10 μL of HTRF detection buffer supplemented with Europium cryptate-labeled anti-human IgG (PerkinElmer-AD0212) specific for Fe and anti-His antibody conjugated to SureLight®-Allophycocyanin (APC, PerkinElmer-AD0059H). After centrifugation, the plate was incubated at 25° C. for 60 min. before reading on a PHERAstar FS plate reader (665 nm/620 nm ratio). Final concentrations in the assay were—3 nM PD1, 10 nM PD-L1, 1 nM europium anti-human IgG and 20 nM anti-His-Allophycocyanin.IC50 determination was performed by fitting the curve of percent control activity versus the log of the inhibitor concentration using the GraphPad Prism 5.0 software.

PD-1/PD-L1 protein/protein interaction, sequence (Q9NZQ7 19-238): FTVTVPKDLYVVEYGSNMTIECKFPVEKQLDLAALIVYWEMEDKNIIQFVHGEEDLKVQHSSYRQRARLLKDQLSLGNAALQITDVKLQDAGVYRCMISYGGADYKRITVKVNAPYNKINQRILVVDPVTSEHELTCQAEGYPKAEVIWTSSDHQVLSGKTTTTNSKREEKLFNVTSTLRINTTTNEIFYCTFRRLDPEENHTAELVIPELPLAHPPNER

Compound | IC50
Cc1c(-c2ccc3c(c2)OCCO3)ccnc1-c1nc2cc(CN3CCCC[C@H]3C(=O)O)c(OCC#N)cc2o1 [Example 35, (2S)-1-({6-(cyanomethoxy)-2-[4-(2,3-dihydro-1,4-benzodioxin-6-yl)-3-methylpyridin-2-yl]-1,3-benzoxazol-5-yl}methyl)piperidine-2-carboxylic Acid] | 0.01 to 0.1 µM
N#CCOc1cc2oc(-c3cccc(-c4ccc5c(c4)OCCO5)c3C#N)nc2cc1CN1CCCC[C@H]1C(=O)O [Example 37, (2S)-1-{[2-[2-cyano-3-(2,3-dihydro-1,4-benzodioxin-6-yl)phenyl]-6-(cyanomethoxy)-1,3-benzoxazol-5-yl]methyl}piperidine-2-carboxylic Acid] | 0.01 to 0.1 µM
Cc1c(-c2ccccc2)cccc1-c1nc2ccc(CN3CCCC[C@H]3C(=O)O)cc2o1 [Example 38, (2S)-1-{[2-(2-methylbiphenyl-3-yl)-1,3-benzoxazol-6-yl]methyl}piperidine-2-carboxylic Acid] | 0.01 to 0.1 µM

Second part, the molecule after the results:

IC50 | Compound
≤ 0.01 µM | Cc1c(-c2ccc3c(c2)OCCO3)cccc1-c1nc2cc(CN3CCCC[C@H]3C(=O)O)c(OCC#N)cc2o1 [Example 36, (2S)-1-({6-(cyanomethoxy)-2-[3-(2,3-dihydro-1,4-benzodioxin-6-yl)-2-methylphenyl]-1,3-benzoxazol-5-yl}methyl)piperidine-2-carboxylic Acid]
≤ 0.01 µM | Cc1c(-c2nc3cc(CNCCO)c(OCC#N)cc3o2)cccc1-c1ccccc1F [Example 39, [(2-(2′-fluoro-2-methylbiphenyl-3-yl)-5-{[(2-hydroxyethyl)amino]methyl}-1,3-benzoxazol-6-yl)oxy]acetonitrile]
0.01 to 0.1 µM | Cc1c(C2=CCCCC2)cccc1-c1nc2cc(CNCCO)c(OCC#N)cc2o1 [Example 40, [(2-(3-cyclohex-1-en-1-yl-2-methylphenyl)-5-{[(2-hydroxyethyl)amino]methyl}-1,3-benzoxazol-6-yl)oxy]acetonitrile]
